What was measured:
Experiment in all cases: relative viability (nuclei count vs DMSO), 5 days (fraction); higher = more cells survive
[1] = compound: C[C@@]1(C(=O)Nc2ccc(F)nc2)CCCN1c1nc(Nc2cc(C3CC3)n[nH]2)c2cccn2n1 + CC(C)C[C@H](NC(=O)[C@H](Cc1ccccc1)NC(=O)c1cnccn1)B(O)O [Bortezomib] (partner 0.002 µM)
Outline: (§1)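 One day after seeding in 1536-well plates, lung cancer cell lines were dosed by pin tool. Dosing was either single-drug or a fixed anchor-drug dose plus five library-drug doses (not always all listed) in √10 steps. After 5 days, nuclei were stained in one fix-and-stain step and counted on 4× images, and relative viability is the nuclei count of treated wells over that of vehicle wells, given as the median of duplicate plates.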

Motesanib + Palbociclib = compound: CC1(C)CNc2cc(NC(=O)c3cccnc3NCc3ccncc3)ccc21 [Motesanib] + CC(=O)c1c(C)c2cnc(Nc3ccc(N4CCNCC4)cn3)nc2n(C2CCCC2)c1=O [Palbociclib] (partner 0.5 µM)
Outline: as §1

Motesanib + Crizotinib = compound: CC1(C)CNc2cc(NC(=O)c3cccnc3NCc3ccncc3)ccc21 [Motesanib] + C[C@@H](Oc1cc(-c2cnn(C3CCNCC3)c2)cnc1N)c1c(Cl)ccc(F)c1Cl [Crizotinib] (partner 1 µM)
Outline: as §1

[2] = compound: C[C@@]1(C(=O)Nc2ccc(F)nc2)CCCN1c1nc(Nc2cc(C3CC3)n[nH]2)c2cccn2n1 + O=C(CCCCCCC(=O)Nc1ccccc1)NO [Vorinostat] (partner 1 µM)
Outline: as §1

Cell Line | relative viability ([1]; first compound 0.04 µM) | relative viability ([1]; first compound 0.1265 µM) | relative viability ([1]; first compound 0.4 µM) | relative viability ([1]; first compound 1.265 µM) | relative viability (Motesanib + Palbociclib; first compound 0.01 µM) | relative viability (Motesanib + Palbociclib; first compound 0.03162 µM) | relative viability (Motesanib + Palbociclib; first compound 0.1 µM) | relative viability (Motesanib + Palbociclib; first compound 0.3162 µM) | relative viability (Motesanib + Palbociclib; first compound 1 µM) | relative viability (Motesanib + Crizotinib; first compound 0.01 µM) | relative viability (Motesanib + Crizotinib; first compound 0.03162 µM) | relative viability (Motesanib + Crizotinib; first compound 0.1 µM) | relative viability (Motesanib + Crizotinib; first compound 0.3162 µM) | relative viability (Motesanib + Crizotinib; first compound 1 µM) | relative viability ([2]; first compound 0.04 µM) | relative viability ([2]; first compound 0.1265 µM) | relative viability ([2]; first compound 0.4 µM) | relative viability ([2]; first compound 1.265 µM)
HCC-827 | 1.07 | 1.03 | 0.971 | 0.926 | 0.569 | 0.437 | 0.459 | 0.546 | 0.439 | 0.99 | 0.985 | 0.998 | 0.955 | 0.93 | 0.891 | 0.933 | 0.731 | 0.823
HOP-62 | 0.752 | 0.67 | 0.704 | 1.02 | 0.451 | 0.43 | 0.499 | 0.51 | 0.494 | 0.899 | 0.82 | 0.859 | 1.05 | 0.932 | 0.589 | 0.529 | 0.464 | 0.527
IA-LM | 0.844 | 0.933 | 0.807 | 0.48 | – | – | – | – | – | 0.829 | 0.745 | 1.21 | 0.729 | 0.803 | 0.914 | 0.999 | 0.836 | 0.928
LC-2-ad | 1.06 | 0.845 | 0.805 | 0.411 | 0.487 | 0.514 | 0.556 | 0.49 | 0.5 | 0.442 | 0.46 | – | 0.441 | 0.484 | 0.66 | 0.554 | 0.526 | 0.186
LCLC-97TM1 | 0.637 | 0.189 | 0.132 | 0.0641 | 0.188 | 0.216 | 0.229 | 0.32 | 0.261 | 0.362 | 0.429 | 0.373 | 0.469 | 0.486 | 0.361 | 0.28 | 0.106 | 0.0755
LCLC-103H | 1.07 | 1.08 | 0.788 | 0.958 | 0.505 | 0.469 | 0.525 | 0.555 | 0.513 | – | 1.13 | 0.986 | 1.08 | 1.15 | 0.763 | 0.62 | 0.593 | 0.563
LK-2 | – | – | – | – | 0.784 | 0.659 | 0.537 | 0.667 | 0.708 | 0.232 | 0.234 | 0.231 | 0.249 | 0.217 | 0.294 | 0.182 | 0.151 | 0.202
LOU-NH91 | 0.482 | 0.519 | 0.481 | 0.493 | 0.536 | 0.463 | 0.539 | 0.58 | 0.553 | 0.743 | 0.746 | 0.743 | 0.769 | 0.729 | 0.961 | 0.856 | 0.747 | 0.711
LU99A | 0.984 | 0.837 | 0.623 | 0.445 | 0.412 | 0.489 | 0.435 | 0.334 | 0.417 | 0.518 | 0.477 | 0.493 | 0.549 | 0.574 | 0.368 | 0.245 | 0.229 | 0.193
NCI-H358 | – | – | – | – | 0.142 | 0.133 | 0.132 | 0.161 | 0.13 | 0.578 | 0.346 | 0.763 | 0.586 | 0.596 | 0.451 | 0.35 | 0.203 | 0.156
NCI-H522 | – | – | – | – | 1.15 | 1.01 | 1 | 0.84 | 1.26 | – | – | – | – | – | 0.864 | 0.809 | 0.69 | 0.875
NCI-H596 | 0.908 | 0.892 | 0.929 | 1 | – | – | – | – | – | 0.937 | 0.884 | 0.958 | 1.12 | 1.05 | 0.571 | 0.449 | 0.528 | 0.466
NCI-H1299 | 1.05 | 0.975 | 1.03 | 1.03 | – | – | – | – | – | 0.938 | 0.978 | 0.951 | 0.949 | 0.936 | – | – | – | –
NCI-H1395 | – | – | – | – | 0.682 | 0.602 | 0.623 | 0.661 | 0.661 | – | – | – | – | – | 0.803 | 0.415 | 0.629 | 0.528
NCI-H1563 | 0.853 | 0.826 | 0.73 | 0.747 | – | – | – | – | – | 0.867 | 0.855 | 0.906 | 0.804 | 0.914 | – | – | – | –
NCI-H1648 | – | – | – | – | 0.305 | – | – | 0.28 | 0.261 | – | – | – | – | – | 0.363 | 0.332 | 0.221 | 0.443
NCI-H1703 | 0.349 | 0.328 | 0.415 | 0.237 | – | – | – | – | – | 0.826 | 0.545 | 0.303 | 0.155 | 0.172 | – | – | – | –
NCI-H1792 | 0.868 | 0.825 | 0.651 | 0.506 | – | 0.583 | 0.653 | 0.675 | 0.667 | 0.931 | 0.92 | 1.01 | 1.05 | 0.968 | – | – | – | –
NCI-H1793 | – | – | – | – | 0.351 | 0.306 | 0.335 | 0.277 | 0.334 | – | – | – | – | – | 0.79 | 0.613 | 0.507 | 0.202
NCI-H1944 | – | – | – | – | 0.352 | 0.328 | 0.334 | 0.302 | 0.326 | 1.08 | 1.06 | 1.17 | 1.02 | 1.17 | 0.548 | 0.448 | 0.482 | 0.545
NCI-H2170 | – | – | – | – | 0.397 | 0.382 | 0.388 | 0.377 | 0.397 | 1.16 | 1.19 | 1.15 | 1.13 | 1.18 | 0.825 | 0.729 | 0.819 | 0.743
NCI-H2342 | – | – | – | – | 0.508 | 0.52 | 0.539 | 0.527 | 0.554 | – | – | – | – | – | 0.803 | 0.708 | 0.696 | 0.582
SK-MES-1 | – | – | – | – | 0.322 | 0.319 | 0.316 | 0.331 | 0.351 | 0.983 | 0.986 | 1.01 | 1.05 | 0.977 | 1.21 | 1.05 | 0.859 | 0.354
SW 900 | – | – | – | – | 0.489 | 0.53 | 0.56 | 0.614 | 0.564 | – | – | – | – | – | 0.557 | 0.426 | 0.432 | 0.468

From the supplement of paper PMC10307832
